# Assay results from US11377423B2, “Inhibitors of histone deacetylase” (The Broad Institute, Inc., priority 2012, dated 2022).
# pIC50: −log10 of the molar value. Read-outs that look alike come from different tables or passages of the source.
# Assays:
# HDAC5 = HDAC5 (Homo sapiens (Human), UniProt Q9UQL6); test: Caliper HDAC enzymatic endpoint assay, HDAC5; format: biochemical; settings: Table 2C; read-out: HDAC5 IC50 after 0 hr preincubation
# Protocol: (§1) The Caliper HDAC Assay Buffer (acronym HAB, 1 liter) was prepared as follows:
# (§2) Substrate B was prepared as 2 mM in 100% DMSO. Its final concentration in the assay for HDACs 4, 5, 7, 8, 9 is 2 μM.
# (§3) LBH was used as quench inhibitor to stop the reaction at the end point.
# IC50 values are in micromolar.
# HDAC3 = HDAC3 (Homo sapiens (Human), UniProt O15379); test: Caliper HDAC enzymatic endpoint assay, HDAC3; format: biochemical
# Protocol: Substrate A was prepared as 2 mM in DMSO. Its final concentration in the assay for HDACs 1, 2, 3, 6 is 2 μM.
# Below is the HDAC and Substrate concentration used in this assay.
# INS-1E cells = test: ER stress / UPR markers by qPCR and immunoblotting; format: cell-based, rat; settings: 10 μM, GLT
# Protocol: INS-1E cells (one million/well) were seeded in 6-well plates in 2 mL complete medium. After two days, medium was removed and cells were exposed to 2 mL medium/well with the indicated concentrations of palmitate, glucose, HDAC inhibitors and/or vehicle. RNA was purified (Qiagen) and cDNA synthesis performed done according to manufacturers' guidelines (Applied Biosystems) and real-time PCR performed using the SYBR green method (Applied Biosystems). Each cDNA sample in triplicate was subjected to two individual PCR amplifications either for the gene of interest or the reference gene β-actin. See table below for primer sequences. INS-1E cells (one million/well) were seeded in 6-well plates in 2 mL complete medium. After two days, medium was removed and cells were exposed to 2 mL medium/well with the indicated concentrations of palmitate, glucose, test compounds and/or vehicle. Cells were lysed using Passive Lysis Buffer (Promega) containing protease inhibitors (Roche). Lysates were adjusted for protein concentration (Bradford) and protein separated by SDS-PAGE and transferred to PVDF membranes. Blots were developed using a chemiluminescence detection system (SuperSignal, Thermo Fisher Scientific), and light emission was captured using an Imaging Station 4000MM (Carestream). […] Gene expressions (vehicle=open bars, compound 1=light grey bars, GLT=black bars, GLT and compound 1=dark grey bars) were analyzed by qPCR (FIGS. 14A, 14B, 14D, 14E, and 14F) and protein levels (FIGS. 14C and 14G) (24 h) by immunoblotting. Representative blots are shown. Data are presented as fold to CTRL+SEM n=3-4, ns=not significant, *p<0.05, **p<0.01, ***p<0.001 vs unexposed cells; #p<0.05, ##p<0.01, ###p<0.001 vs. GLT treated cells, ANOVA with Tukey corrected test.
# HDAC9 = HDAC9 (Homo sapiens (Human), UniProt Q9UKV0); test: Caliper HDAC enzymatic endpoint assay, HDAC9; format: biochemical; settings: Table 2C; read-out: HDAC9 IC50 after 0 hr preincubation
# Protocol: as §1, §2, §3
# IC50 values are in micromolar.
# Human islets = test: Glucolipotoxicity-induced apoptosis in human islets, caspase-3 activity assay; format: cell-based; settings: 10 μM, 0.5 mM palmitate and 25 mM glucose, 72 h
# Excerpt: Human islets were provided by the Integrated Islet Distribution Program administered by the City of Hope Hospital (IIDP: http://iidp.coh.org/). The average reported purity was 85%±5.2 and viability was 94%±0.6 (age 50±5 years, body mass index 31±2.7 kg/m2). Causes of death were head trauma (n=3), stroke and anoxia. Islets were dissociated and seeded (30,000 cells/well) into black optical 96-well plates (Corning Life Sciences) that coated with HTB-9 extracellular matrix as previously described. (Walpita, D., et al. (2012) J. Biomol. Screen. 17, 509-518.) The dissociated islet cell cultures were allowed to attach and grow in CMRL media in 10% FBS for 3 days before exposure to palmitate (0.5 mM) and high glucose (25 mM) in medium with 1% BSA and without FBS for 72 hours.
# Compounds of the invention protect against combined palmitate and high glucose induced apoptosis in INS-1E cells. […] Apoptosis was measured by caspase-3 activity assay.
# dopaminergic signaling = test: Amphetamine-induced hyperactivity (AIH); format: in vivo; settings: mice, 10 mg/kg once daily, data 18-24 h after the 7th dose
# Protocol: Compounds of the invention were evaluated for their ability to influence dopaminerigic signaling according to the following procedure. Mice were dosed once daily with 10 mg/kg of compound 1. Data collected 18-24 h after the 7th dose. Amphetamine-induced hyperactivity (AIH) was examined in eight identical open-field chambers (16.5″×16″×12″; AccuScan Instruments, Columbus, Ohio). Activity was detected by infrared beam breaks and recorded automatically by VersaMax software (AccuScan). Daily sessions were automatically binned in 5 minute intervals (VersaDat; AccuSacn) for statistical analysis. AIH was run over three consecutive days as follows:
# Day 1: Habituation: Mice were placed into the open-field for 20 minutes and then removed for a saline injection. Mice were placed back into the open-field for an additional 30 minutes, at which point the mice were returned to their home cage.
# Day 2: Baseline Motor Activity: This phase was run identically to Day 1, with the exception that the second day lasted for one hour (20 minutes pre-injection; 40 minutes post-injection).
# Day 3: Amphetamine Challenge: Mice were placed in the open-field. After 20 minutes, mice were removed and challenged with amphetamine, and placed back in the open-field for 80 minutes.
# **Note: All HDAC inhibitor treatments occurred 18-25 hours prior to behavioral testing. […]
# [1] = Fear conditioning assay in normal animals; format: in vivo; settings: wild type normal mouse, single dose
# Excerpt: In one aspect, the invention provides methods and compositions for promoting cognitive function and enhancing learning and memory formation in both normal subjects as well as those suffering from memory loss and cognitive function disorders/impairments. […] A normal subject, as used herein, is a subject that has not been diagnosed with a disorder associated with impaired cognitive function. “Cognitive function” refers to mental processes of a subject relating to information gathering and/or processing; the understanding, reasoning, and/or application of information and/or ideas; the abstraction or specification of ideas and/or information; acts of creativity, problem-solving, and possibly intuition; and mental processes such as learning, perception, and/or awareness of ideas and/or information. The mental processes are distinct from those of beliefs, desires, and the like.
# HDAC3, sequence (O15379 whole entry): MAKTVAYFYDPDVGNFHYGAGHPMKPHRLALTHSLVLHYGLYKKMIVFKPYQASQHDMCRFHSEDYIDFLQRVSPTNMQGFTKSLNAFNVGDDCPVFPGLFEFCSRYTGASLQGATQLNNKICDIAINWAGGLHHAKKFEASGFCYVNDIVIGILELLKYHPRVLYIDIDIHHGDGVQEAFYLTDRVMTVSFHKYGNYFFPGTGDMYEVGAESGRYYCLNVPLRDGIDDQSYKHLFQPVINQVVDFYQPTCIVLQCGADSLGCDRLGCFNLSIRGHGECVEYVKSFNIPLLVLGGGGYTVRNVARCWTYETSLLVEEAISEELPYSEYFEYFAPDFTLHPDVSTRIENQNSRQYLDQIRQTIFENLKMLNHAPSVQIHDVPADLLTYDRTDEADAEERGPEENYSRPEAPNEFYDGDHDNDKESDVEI
# HDAC3, sequence (Q9Y618 395-489 partner): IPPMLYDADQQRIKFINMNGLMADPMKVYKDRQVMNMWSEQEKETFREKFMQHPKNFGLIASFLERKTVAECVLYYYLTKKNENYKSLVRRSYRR
# HDAC5, sequence (Q9UQL6 whole entry): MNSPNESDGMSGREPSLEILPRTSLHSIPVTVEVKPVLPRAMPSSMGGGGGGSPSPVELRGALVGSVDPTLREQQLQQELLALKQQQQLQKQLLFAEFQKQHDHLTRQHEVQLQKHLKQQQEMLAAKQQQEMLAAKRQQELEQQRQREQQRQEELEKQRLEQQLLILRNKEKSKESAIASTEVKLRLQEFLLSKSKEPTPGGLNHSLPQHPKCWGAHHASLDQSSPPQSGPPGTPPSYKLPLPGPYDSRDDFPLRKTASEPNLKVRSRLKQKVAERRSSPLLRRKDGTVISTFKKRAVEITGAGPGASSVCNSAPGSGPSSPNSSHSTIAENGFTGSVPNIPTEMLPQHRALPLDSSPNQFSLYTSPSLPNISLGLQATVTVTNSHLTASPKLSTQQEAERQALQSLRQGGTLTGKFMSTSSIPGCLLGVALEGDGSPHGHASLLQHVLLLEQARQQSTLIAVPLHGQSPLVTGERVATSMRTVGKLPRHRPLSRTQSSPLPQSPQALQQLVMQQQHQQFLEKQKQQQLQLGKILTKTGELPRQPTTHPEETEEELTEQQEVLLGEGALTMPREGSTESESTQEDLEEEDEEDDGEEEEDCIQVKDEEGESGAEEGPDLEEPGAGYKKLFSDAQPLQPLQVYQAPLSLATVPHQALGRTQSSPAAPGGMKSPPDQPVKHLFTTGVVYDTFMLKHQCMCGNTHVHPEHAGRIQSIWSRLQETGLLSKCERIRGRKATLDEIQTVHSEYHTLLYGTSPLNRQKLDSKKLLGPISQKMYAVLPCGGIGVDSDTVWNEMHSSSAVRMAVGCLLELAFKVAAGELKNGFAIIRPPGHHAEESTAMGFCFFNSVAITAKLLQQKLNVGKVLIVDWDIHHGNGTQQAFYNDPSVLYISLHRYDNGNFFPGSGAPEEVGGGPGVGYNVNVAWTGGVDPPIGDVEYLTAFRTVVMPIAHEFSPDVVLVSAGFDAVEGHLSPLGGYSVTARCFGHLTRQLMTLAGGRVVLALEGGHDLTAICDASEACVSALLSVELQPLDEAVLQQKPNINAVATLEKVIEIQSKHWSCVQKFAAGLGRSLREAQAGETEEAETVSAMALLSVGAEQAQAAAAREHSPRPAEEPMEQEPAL
# HDAC9, sequence (Q9UKV0 whole entry): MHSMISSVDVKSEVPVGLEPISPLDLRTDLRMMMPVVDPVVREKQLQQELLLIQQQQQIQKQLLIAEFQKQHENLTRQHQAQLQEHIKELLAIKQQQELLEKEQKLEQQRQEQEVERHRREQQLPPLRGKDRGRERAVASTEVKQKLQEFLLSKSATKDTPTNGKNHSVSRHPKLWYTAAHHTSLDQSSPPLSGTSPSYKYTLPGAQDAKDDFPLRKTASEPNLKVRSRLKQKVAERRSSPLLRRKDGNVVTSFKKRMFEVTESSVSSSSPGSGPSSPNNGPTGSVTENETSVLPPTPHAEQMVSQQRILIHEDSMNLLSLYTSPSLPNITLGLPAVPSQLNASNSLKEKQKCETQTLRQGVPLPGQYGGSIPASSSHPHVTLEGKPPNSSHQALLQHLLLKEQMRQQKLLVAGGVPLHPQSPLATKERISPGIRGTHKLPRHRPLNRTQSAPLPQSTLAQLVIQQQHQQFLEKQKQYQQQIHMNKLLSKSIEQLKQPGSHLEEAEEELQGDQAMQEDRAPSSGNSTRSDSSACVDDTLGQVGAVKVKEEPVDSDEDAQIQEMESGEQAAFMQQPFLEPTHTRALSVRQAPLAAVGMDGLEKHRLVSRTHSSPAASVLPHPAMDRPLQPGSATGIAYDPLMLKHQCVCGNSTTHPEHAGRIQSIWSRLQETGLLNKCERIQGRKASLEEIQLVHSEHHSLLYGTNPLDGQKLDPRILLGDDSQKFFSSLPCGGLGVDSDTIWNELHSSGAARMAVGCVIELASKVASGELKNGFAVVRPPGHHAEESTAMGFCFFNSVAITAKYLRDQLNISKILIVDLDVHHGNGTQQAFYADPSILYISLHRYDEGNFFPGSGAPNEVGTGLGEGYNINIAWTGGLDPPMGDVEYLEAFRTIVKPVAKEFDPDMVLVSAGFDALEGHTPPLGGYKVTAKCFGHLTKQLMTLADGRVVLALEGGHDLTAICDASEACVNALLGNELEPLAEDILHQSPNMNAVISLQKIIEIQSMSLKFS
structure (smiles),measurement,setting,value
"CC(=O)Nc1ccc(C(=O)Nc2ccc(F)cc2N)cc1 [Compound 1, 4-acetamido-N-(2-amino-4-fluorophenyl)benzamide]",pIC50,HDAC5,< 4.48
same,more potent inhibitor of HDAC3 than compounds 3 and 4,"HDAC3; IC50, 3 h preincubation",5-10 times
same,pIC50,"HDAC3; read-out: HDAC3 IC50 3 h Prein, Table 2, 3 h preincubation",7.17
same,pIC50,"HDAC3; read-out: HDAC3 IC50 3 h Preinc, Table 2A, 3 h preincubation",7.17
same,pIC50,"HDAC3; read-out: HDAC3 IC50 @3 hr, 3 hr preincubation",7.17
same,Atf4 transcription factor induction,INS-1E cells,did not affect Atf4 transcription factor induction
same,levels of the ER chaperone Bip mRNA,INS-1E cells,did not change
same,splicing of Xbp1 to Xbp1s,INS-1E cells,did not affect splicing
same,ATF4-mediated induction of Chop,INS-1E cells; 9 hrs,decreased
same,ATF4-mediated induction of Atf3,INS-1E cells; 24 hrs,decreased
same,CHOP mRNA and protein induction,INS-1E cells; 24 hrs,completely reversed
same,phosphorylation of JNK (pJNK/tJNK),INS-1E cells; 24 hrs,inhibited phosphorylation of JNK
same,pIC50,HDAC9,< 4.48
same,glucolipotoxicity-induced apoptosis in human islets,Human islets,decreases glucolipotoxicity-induced apoptosis in human islets
same,effect on amphetamine-induced hyperactivity,dopaminergic signaling,potentiates
same,effect in fear conditioning assay,[1],no effect was observed
